Measured values: doi:10.1101/2024.02.16.580709v1, “Developing Hybrid Systems to Address O2 Uncoupling in Multi-Component Rieske Oxygenases” (biorxiv, 2024)

What was measured:
Assay type in all cases: biochemical
[1] = target: T1, CDO (CDO-WT; CDO-Oxy with CDO-Fd and CDO-Red) (Pseudomonas fluorescens, UniProt Q51743); test: GC-FID product quantification; conditions: 30 °C, 24 h, pH 7.2; NAD+ with GDH/glucose NADH regeneration, catalase, 1 mM DTT; O2
T1 construct: gene cumA1; codon-optimised genes in pET-28a(+), N-terminal 6xHis tag, E. coli JM109(DE3), Ni-sepharose purified; components mixed in vitro; with Cumene dioxygenase terminal oxygenase small (beta) subunit; Cumene dioxygenase ferredoxin; Cumene dioxygenase ferredoxin reductase
T1 sequence (Q51743 1-459): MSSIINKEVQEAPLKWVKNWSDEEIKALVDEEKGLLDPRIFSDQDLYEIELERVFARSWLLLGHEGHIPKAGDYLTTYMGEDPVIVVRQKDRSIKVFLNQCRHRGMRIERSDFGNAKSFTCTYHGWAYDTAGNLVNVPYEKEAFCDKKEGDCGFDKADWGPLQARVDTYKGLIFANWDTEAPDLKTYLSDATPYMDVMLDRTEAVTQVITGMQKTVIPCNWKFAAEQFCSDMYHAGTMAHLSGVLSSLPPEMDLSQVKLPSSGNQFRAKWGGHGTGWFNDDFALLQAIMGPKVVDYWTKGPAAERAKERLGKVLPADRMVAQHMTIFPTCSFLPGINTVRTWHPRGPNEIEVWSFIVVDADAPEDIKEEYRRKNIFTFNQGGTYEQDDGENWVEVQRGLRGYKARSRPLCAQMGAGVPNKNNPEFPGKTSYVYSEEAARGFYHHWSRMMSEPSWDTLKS
T1 sequence (Q51744 1-186 partner): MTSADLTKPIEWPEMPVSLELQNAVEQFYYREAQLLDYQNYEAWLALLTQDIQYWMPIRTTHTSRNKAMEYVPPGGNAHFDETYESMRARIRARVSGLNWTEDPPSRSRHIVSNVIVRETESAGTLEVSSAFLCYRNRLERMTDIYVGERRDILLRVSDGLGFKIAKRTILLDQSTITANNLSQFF

VanB = target: T2, VanB (Pseudomonas aeruginosa, UniProt Q9HUQ8); test: ABTS-HRP assay of H2O2 formed; conditions: 24 h; GDH-based NADH regeneration; O2 uncoupling, no ferredoxin
T2 construct: codon-optimised gene in pET-28a(+), N-terminal 6xHis tag, E. coli JM109(DE3), Ni-sepharose purified; flavin and [2Fe-2S] domains
T2 sequence (Q9HUQ8 1-317): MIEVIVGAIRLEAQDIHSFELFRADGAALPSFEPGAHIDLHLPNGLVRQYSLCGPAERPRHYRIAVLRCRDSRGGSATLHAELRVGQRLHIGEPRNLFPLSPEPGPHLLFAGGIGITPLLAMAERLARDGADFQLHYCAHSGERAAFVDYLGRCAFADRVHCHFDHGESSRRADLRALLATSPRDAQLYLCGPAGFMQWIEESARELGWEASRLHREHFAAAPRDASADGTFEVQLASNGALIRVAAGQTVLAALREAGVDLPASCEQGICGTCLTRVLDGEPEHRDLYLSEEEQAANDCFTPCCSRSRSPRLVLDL

PDR = target: T3, PDR (Burkholderia cepacia, UniProt P33164); test: ABTS-HRP assay of H2O2 formed; conditions: 24 h; GDH-based NADH regeneration; O2 uncoupling, no ferredoxin
T3 construct: gene ophA1; codon-optimised gene in pET-28a(+), N-terminal 6xHis tag, E. coli JM109(DE3), Ni-sepharose purified; flavin and [2Fe-2S] domains
T3 sequence (P33164 2-322): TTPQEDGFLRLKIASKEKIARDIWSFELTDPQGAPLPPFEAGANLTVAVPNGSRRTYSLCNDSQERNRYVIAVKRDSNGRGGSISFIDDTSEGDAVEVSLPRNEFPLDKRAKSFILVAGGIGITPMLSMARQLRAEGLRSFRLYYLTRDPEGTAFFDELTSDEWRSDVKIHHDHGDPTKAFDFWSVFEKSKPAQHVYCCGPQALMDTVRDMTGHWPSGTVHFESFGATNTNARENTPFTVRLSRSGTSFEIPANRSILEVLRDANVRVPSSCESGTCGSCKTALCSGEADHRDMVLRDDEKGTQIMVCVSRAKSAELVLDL

| SMILES | GC-FID product quantification [1] | ABTS-HRP assay of H2O2 formed (VanB) | ABTS-HRP assay of H2O2 formed (PDR) |
| --- | --- | --- | --- |
| C1=Cc2ccccc2C1 [compound 1, indene] | product formation in in vitro reactions with complete CDO-WT |  |  |
| NC(=O)C1=CN([C@@H]2O[C@H](COP(=O)(O)OP(=O)(O)OC[C@H]3O[C@@H](n4cnc5c(N)ncnc54)[C@H](O)[C@@H]3O)[C@@H](O)[C@H]2O)C=CC1 [NADH] |  | the H2O2 formation by PDR and VanB was evaluated analogously | the H2O2 formation by PDR and VanB was evaluated analogously |
